{
  "source": "patent US8535901B2",
  "about": "“Peptidase substrates” (bioMérieux, S.A., priority 2009, dated 2013)",
  "type_in_all_cases": "cell-based",
  "key": {"[1]": {"tested_on": "Escherichia coli NCTC 12 076", "assay": "Colony color on lactose/sucrose agar medium with pH indicator", "conditions": "indicator 0.05 g/l with lactose, sucrose and 5-bromo-4-chloro-3-indoxyl-β-D-glucopyranoside 0.05 g/l, 24 hours at 37° C., visual", "procedure": "(§1) Seven strains of microorganisms originating from the NCTC collection and belonging to various species of bacteria are inoculated onto these media by quadrant streaking of 10 μl of a suspension at 0.5 McFarland diluted to a 1/20."}, "[2]": {"tested_on": "Klebsiella pneumoniae NCTC 10 896", "assay": "Colony color on lactose/sucrose agar medium with pH indicator", "conditions": "indicator 0.05 g/l with lactose, sucrose and 5-bromo-4-chloro-3-indoxyl-β-D-glucopyranoside 0.05 g/l, 24 hours at 37° C., visual", "procedure": "as §1"}, "[3]": {"tested_on": "Enterobacter cloacae NCTC 11 936", "assay": "Colony color on lactose/sucrose agar medium with pH indicator", "conditions": "indicator 0.05 g/l with lactose, sucrose and 5-bromo-4-chloro-3-indoxyl-β-D-glucopyranoside 0.05 g/l, 24 hours at 37° C., visual", "procedure": "as §1"}, "[4]": {"tested_on": "Citrobacter freundii NCTC 9750", "assay": "Colony color on lactose/sucrose agar medium with pH indicator", "conditions": "indicator 0.05 g/l with lactose, sucrose and 5-bromo-4-chloro-3-indoxyl-β-D-glucopyranoside 0.05 g/l, 24 hours at 37° C., visual", "procedure": "as §1"}, "[5]": {"tested_on": "Morganella morganii NCTC 235", "assay": "Colony color on lactose/sucrose agar medium with pH indicator", "conditions": "indicator 0.05 g/l with lactose, sucrose and 5-bromo-4-chloro-3-indoxyl-β-D-glucopyranoside 0.05 g/l, 24 hours at 37° C., visual", "procedure": "as §1"}, "[6]": {"tested_on": "Enterobacter aerogenes NCTC 10 102", "assay": "Colony color on lactose/sucrose agar medium with pH indicator", "conditions": "indicator 0.05 g/l with lactose, sucrose and 5-bromo-4-chloro-3-indoxyl-β-D-glucopyranoside 0.05 g/l, 24 hours at 37° C., visual", "procedure": "as §1"}, "[7]": {"tested_on": "Shigella boydii NCTC 9327", "assay": "Colony color on lactose/sucrose agar medium with pH indicator", "conditions": "indicator 0.05 g/l with lactose, sucrose and 5-bromo-4-chloro-3-indoxyl-β-D-glucopyranoside 0.05 g/l, 24 hours at 37° C., visual", "procedure": "as §1"}, "[8]": {"tested_on": "Serratia marcescens NCTC 10 211", "assay": "Peptidase detection on Columbia medium with substrate", "set-up": "key to Grow. (growth): NG: No growth; 0.5: weak growth; 1: moderate growth; 2: good growth", "conditions": "40 mg substrate in 400 ml Columbia medium, 24 hours at 37° C.", "experimental": "(§2) The 6 media were distributed into Petri dishes 90 mm in diameter, in a proportion of 20 ml per dish.\n(§3) Seventeen strains of microorganisms stemming from collections and belonging to various species of bacteria and yeasts are inoculated in spots of approximately 10 000 colony-forming units.\n(§4) The media are incubated for 24 hours at 37° C., and then the colonies formed are examined visually, with or without the addition of acid and under a UV lamp at 365 nm."}, "[9]": {"tested_on": "Candida glabrata NCPF 3 943", "assay": "Peptidase detection on Columbia medium with substrate", "set-up": "key to Grow. (growth): NG: No growth; 0.5: weak growth; 1: moderate growth; 2: good growth", "conditions": "40 mg substrate in 400 ml Columbia medium, 24 hours at 37° C.", "experimental": "as §2, §3, §4"}, "[10]": {"tested_on": "Staphylococcus aureus NCTC 11 939", "assay": "Peptidase detection on Columbia medium with substrate", "set-up": "key to Grow. (growth): NG: No growth; 0.5: weak growth; 1: moderate growth; 2: good growth", "conditions": "40 mg substrate in 400 ml Columbia medium, 24 hours at 37° C.", "experimental": "as §2, §3, §4"}, "[11]": {"tested_on": "Salmonella typhimurium NCTC 74", "assay": "Peptidase detection on Columbia medium with substrate", "set-up": "key to Grow. (growth): NG: No growth; 0.5: weak growth; 1: moderate growth; 2: good growth", "conditions": "40 mg substrate in 400 ml Columbia medium, 24 hours at 37° C.", "experimental": "as §2, §3, §4"}, "[12]": {"tested_on": "Staphylococcus aureus NCTC 6 571", "assay": "Peptidase detection on Columbia medium with substrate", "set-up": "key to Grow. (growth): NG: No growth; 0.5: weak growth; 1: moderate growth; 2: good growth", "conditions": "40 mg substrate in 400 ml Columbia medium, 24 hours at 37° C.", "experimental": "as §2, §3, §4"}, "[13]": {"tested_on": "Escherichia coli NCTC 10 418", "assay": "Peptidase detection on Columbia medium with substrate", "set-up": "key to Grow. (growth): NG: No growth; 0.5: weak growth; 1: moderate growth; 2: good growth", "conditions": "40 mg substrate in 400 ml Columbia medium, 24 hours at 37° C.", "experimental": "as §2, §3, §4"}, "[14]": {"tested_on": "Enterococcus faecalis NCTC 775", "assay": "Peptidase detection on Columbia medium with substrate", "set-up": "key to Grow. (growth): NG: No growth; 0.5: weak growth; 1: moderate growth; 2: good growth", "conditions": "40 mg substrate in 400 ml Columbia medium, 24 hours at 37° C.", "experimental": "as §2, §3, §4"}, "[15]": {"tested_on": "Staphylococcus epidermidis NCTC 11 047", "assay": "Peptidase detection on Columbia medium with substrate", "set-up": "key to Grow. (growth): NG: No growth; 0.5: weak growth; 1: moderate growth; 2: good growth", "conditions": "40 mg substrate in 400 ml Columbia medium, 24 hours at 37° C.", "experimental": "as §2, §3, §4"}, "[16]": {"tested_on": "Listeria monocytogenes NCTC 11 994", "assay": "Peptidase detection on Columbia medium with substrate", "set-up": "key to Grow. (growth): NG: No growth; 0.5: weak growth; 1: moderate growth; 2: good growth", "conditions": "40 mg substrate in 400 ml Columbia medium, 24 hours at 37° C.", "experimental": "as §2, §3, §4"}, "[17]": {"tested_on": "Streptococcus pyogenes NCTC 8 306", "assay": "Peptidase detection on Columbia medium with substrate", "set-up": "key to Grow. (growth): NG: No growth; 0.5: weak growth; 1: moderate growth; 2: good growth", "conditions": "40 mg substrate in 400 ml Columbia medium, 24 hours at 37° C.", "experimental": "as §2, §3, §4"}, "[18]": {"tested_on": "Bacillus subtilis NCTC 9 372", "assay": "Peptidase detection on Columbia medium with substrate", "set-up": "key to Grow. (growth): NG: No growth; 0.5: weak growth; 1: moderate growth; 2: good growth", "conditions": "40 mg substrate in 400 ml Columbia medium, 24 hours at 37° C.", "experimental": "as §2, §3, §4"}, "[19]": {"tested_on": "Pseudomonas aeruginosa NCTC 10 662", "assay": "Peptidase detection on Columbia medium with substrate", "set-up": "key to Grow. (growth): NG: No growth; 0.5: weak growth; 1: moderate growth; 2: good growth", "conditions": "40 mg substrate in 400 ml Columbia medium, 24 hours at 37° C.", "experimental": "as §2, §3, §4"}, "[20]": {"tested_on": "Yersinia enterocolitica NCTC 11 176", "assay": "Peptidase detection on Columbia medium with substrate", "set-up": "key to Grow. (growth): NG: No growth; 0.5: weak growth; 1: moderate growth; 2: good growth", "conditions": "40 mg substrate in 400 ml Columbia medium, 24 hours at 37° C.", "experimental": "as §2, §3, §4"}, "[21]": {"tested_on": "Providencia rettgeri NCTC 7 475", "assay": "Peptidase detection on Columbia medium with substrate", "set-up": "key to Grow. (growth): NG: No growth; 0.5: weak growth; 1: moderate growth; 2: good growth", "conditions": "40 mg substrate in 400 ml Columbia medium, 24 hours at 37° C.", "experimental": "as §2, §3, §4"}, "[22]": {"tested_on": "Candida albicans ATCC 90 028", "assay": "Peptidase detection on Columbia medium with substrate", "set-up": "key to Grow. (growth): NG: No growth; 0.5: weak growth; 1: moderate growth; 2: good growth", "conditions": "40 mg substrate in 400 ml Columbia medium, 24 hours at 37° C.", "experimental": "as §2, §3, §4"}, "[23]": {"tested_on": "Enterococcus faecium NCTC 7 171", "assay": "Peptidase detection on Columbia medium with substrate", "set-up": "key to Grow. (growth): NG: No growth; 0.5: weak growth; 1: moderate growth; 2: good growth", "conditions": "40 mg substrate in 400 ml Columbia medium, 24 hours at 37° C.", "experimental": "as §2, §3, §4"}, "[24]": {"tested_on": "Enterobacter cloacae NCTC 11 936", "assay": "Peptidase detection on Columbia medium with substrate", "set-up": "key to Grow. (growth): NG: No growth; 0.5: weak growth; 1: moderate growth; 2: good growth", "conditions": "40 mg substrate in 400 ml Columbia medium, 24 hours at 37° C.", "experimental": "as §2, §3, §4"}},
  "data": [
    {"molecule": "Nc1ccc(C=Cc2ccncc2)cc1", "note": "[4-4′-Aminostyrylpyridine, 4-(4′-Aminostyryl)pyridine]", "values": [
      {"measurement": "Colony color", "setting": "[1]", "result": "Yellow"},
      {"measurement": "Colony color", "setting": "[2]", "result": "Green"},
      {"measurement": "Colony color", "setting": "[3]", "result": "Green"},
      {"measurement": "Colony color", "setting": "[4]", "result": "Yellow"},
      {"measurement": "Colony color", "setting": "[5]", "result": "Colorless"},
      {"measurement": "Colony color", "setting": "[6]", "result": "Green"},
      {"measurement": "Colony color", "setting": "[7]", "result": "Colorless"}
    ]},
    {"molecule": "C[n+]1ccc(C=Cc2ccc(NC(=O)CCN)cc2)cc1.[Cl-]", "note": "[β-Ala-ASPM^+, β-Alanyl-4-(4′-amidostyryl)-N-methyl-pyridinium chloride]", "values": [
      {"measurement": "Grow. (growth)", "setting": "[8]", "result": 2},
      {"measurement": "Col. (colour of the colonies)", "setting": "[8]; visual", "result": "Orange"},
      {"measurement": "Grow. (growth)", "setting": "[9]", "result": 1},
      {"measurement": "Col. (colour of the colonies)", "setting": "[9]; visual", "result": "Pale green"},
      {"measurement": "Grow. (growth)", "setting": "[10]", "result": 2},
      {"measurement": "Col. (colour of the colonies)", "setting": "[10]; visual", "result": "Green"},
      {"measurement": "Grow. (growth)", "setting": "[11]", "result": 1},
      {"measurement": "Col. (colour of the colonies)", "setting": "[11]; visual", "result": "Pale green"},
      {"measurement": "Grow. (growth)", "setting": "[12]", "result": 2},
      {"measurement": "Col. (colour of the colonies)", "setting": "[12]; visual", "result": "Green"},
      {"measurement": "Grow. (growth)", "setting": "[13]", "result": 2},
      {"measurement": "Col. (colour of the colonies)", "setting": "[13]; visual", "result": "Green"},
      {"measurement": "Grow. (growth)", "setting": "[14]", "result": 2},
      {"measurement": "Col. (colour of the colonies)", "setting": "[14]; visual", "result": "Pale green"},
      {"measurement": "Grow. (growth)", "setting": "[15]", "result": 2},
      {"measurement": "Col. (colour of the colonies)", "setting": "[15]; visual", "result": "Green"},
      {"measurement": "Grow. (growth)", "setting": "[16]", "result": 2},
      {"measurement": "Col. (colour of the colonies)", "setting": "[16]; visual", "result": "Pale green"},
      {"measurement": "Grow. (growth)", "setting": "[17]", "result": 1},
      {"measurement": "Col. (colour of the colonies)", "setting": "[17]; visual", "result": "Pale green"},
      {"measurement": "Grow. (growth)", "setting": "[18]", "result": 2},
      {"measurement": "Col. (colour of the colonies)", "setting": "[18]; visual", "result": "Pale green"},
      {"measurement": "Grow. (growth)", "setting": "[19]", "result": 2},
      {"measurement": "Col. (colour of the colonies)", "setting": "[19]; visual", "result": "Orange"},
      {"measurement": "Grow. (growth)", "setting": "[20]", "result": 2},
      {"measurement": "Col. (colour of the colonies)", "setting": "[20]; visual", "result": "Pale green"},
      {"measurement": "Grow. (growth)", "setting": "[21]", "result": 2},
      {"measurement": "Col. (colour of the colonies)", "setting": "[21]; visual", "result": "Green"},
      {"measurement": "Grow. (growth)", "setting": "[22]", "result": 2},
      {"measurement": "Col. (colour of the colonies)", "setting": "[22]; visual", "result": "Pale green"},
      {"measurement": "Grow. (growth)", "setting": "[23]", "result": 2},
      {"measurement": "Col. (colour of the colonies)", "setting": "[23]; visual", "result": "Pale green"},
      {"measurement": "Grow. (growth)", "setting": "[24]", "result": 2},
      {"measurement": "Col. (colour of the colonies)", "setting": "[24]; visual", "result": "Green"}
    ]}
  ]
}
